The target in this test is T1, POLγA:A467T (Homo sapiens, UniProt P54098, A467T).
T1 sequence (P54098 1-1239 A467T): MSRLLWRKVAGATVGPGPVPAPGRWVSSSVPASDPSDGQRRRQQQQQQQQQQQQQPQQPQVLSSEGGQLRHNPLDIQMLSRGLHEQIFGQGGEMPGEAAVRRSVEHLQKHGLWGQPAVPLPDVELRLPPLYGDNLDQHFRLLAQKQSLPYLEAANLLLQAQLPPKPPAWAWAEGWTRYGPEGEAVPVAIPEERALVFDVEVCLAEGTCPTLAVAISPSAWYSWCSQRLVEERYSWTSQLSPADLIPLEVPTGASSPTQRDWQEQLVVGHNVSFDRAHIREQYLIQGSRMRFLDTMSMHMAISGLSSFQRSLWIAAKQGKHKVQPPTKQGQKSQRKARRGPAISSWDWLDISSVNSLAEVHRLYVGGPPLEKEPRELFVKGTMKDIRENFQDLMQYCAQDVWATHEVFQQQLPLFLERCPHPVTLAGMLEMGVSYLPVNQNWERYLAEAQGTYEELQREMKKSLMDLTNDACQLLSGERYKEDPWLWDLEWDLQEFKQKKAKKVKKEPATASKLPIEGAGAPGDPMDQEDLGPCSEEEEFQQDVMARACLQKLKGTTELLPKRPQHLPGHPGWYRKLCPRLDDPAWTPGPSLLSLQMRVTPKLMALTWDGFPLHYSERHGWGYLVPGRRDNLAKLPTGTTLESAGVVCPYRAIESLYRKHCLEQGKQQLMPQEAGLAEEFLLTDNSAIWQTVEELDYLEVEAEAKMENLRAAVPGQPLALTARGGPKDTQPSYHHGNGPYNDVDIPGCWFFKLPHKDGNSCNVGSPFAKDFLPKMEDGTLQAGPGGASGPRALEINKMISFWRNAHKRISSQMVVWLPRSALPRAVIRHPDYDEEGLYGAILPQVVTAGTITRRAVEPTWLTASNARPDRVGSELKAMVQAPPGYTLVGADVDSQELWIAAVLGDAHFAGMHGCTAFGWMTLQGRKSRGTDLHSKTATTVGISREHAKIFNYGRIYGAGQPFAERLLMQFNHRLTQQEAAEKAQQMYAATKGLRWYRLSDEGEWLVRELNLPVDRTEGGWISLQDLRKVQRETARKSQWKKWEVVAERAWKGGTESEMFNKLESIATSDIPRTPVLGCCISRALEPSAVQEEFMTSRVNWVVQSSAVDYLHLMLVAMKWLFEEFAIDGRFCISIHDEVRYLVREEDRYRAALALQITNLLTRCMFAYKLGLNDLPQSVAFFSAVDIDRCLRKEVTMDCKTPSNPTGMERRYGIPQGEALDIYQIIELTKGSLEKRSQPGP
T1 sequence (Q9UHN1 1-485 partner): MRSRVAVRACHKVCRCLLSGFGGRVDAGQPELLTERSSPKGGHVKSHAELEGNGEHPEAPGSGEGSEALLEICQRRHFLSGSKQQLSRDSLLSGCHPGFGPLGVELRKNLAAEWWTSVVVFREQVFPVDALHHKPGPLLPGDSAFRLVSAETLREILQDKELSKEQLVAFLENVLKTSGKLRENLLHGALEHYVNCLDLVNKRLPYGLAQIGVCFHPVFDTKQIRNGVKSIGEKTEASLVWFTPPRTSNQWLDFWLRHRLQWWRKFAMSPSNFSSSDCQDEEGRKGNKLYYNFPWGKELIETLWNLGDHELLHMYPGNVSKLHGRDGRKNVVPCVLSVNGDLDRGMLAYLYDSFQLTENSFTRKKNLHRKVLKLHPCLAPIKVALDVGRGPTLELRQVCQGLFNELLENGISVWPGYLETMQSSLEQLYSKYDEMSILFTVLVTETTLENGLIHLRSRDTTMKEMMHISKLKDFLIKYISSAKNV
The test can be described thus: DNA polymerization assay, POLγA:A467T mutant. It is filed as biochemical. The settings on record: stimulation of polymerase activity, primed M13mp18 ssDNA, 37° C. 2 hours; read-out: A467T AC50. How it is done:
DNA Polymerization Assay to Monitor Effects on Human Wildtype POLγ and Four Disease-Causing Mutant Variants of Human POLγ.
The ability of small molecules to stimulate the polymerase activity of POLγ was analyzed in a quantitative fluorescence SYBR Green I assay with fluorescence intensity (FI) readout.
In the presence of dNTPs, wild type human POLγ and mutant derivatives thereof were incubated with single-stranded, circular M13mp18 ssDNA hybridized to a short DNA oligonucleotide that functions as a primer for initiation of DNA synthesis. POLγ and mutant derivatives thereof will extend the primer and use the M13mp18 molecule as a template to synthesize long stretches of double-stranded DNA. SYBR Green I, which is a double-stranded DNA-binding dye, was used to quantify formation of double-stranded DNA in the reaction. When bound to double-stranded DNA, SYBR Green I fluorescence increases by up to 100-fold.
The assay was performed in the 384-well plate format. Upon addition of compounds, changes in double-stranded DNA synthesis activity can be monitored by following effects on fluorescent intensity.
The reactions also contained the accessory POLγB subunit, and the human mitochondrial single-stranded DNA binding protein (mtSSB).
The DNA template mixture used in the assay contained 0.5 nM primed M13 mp18 ssDNA, 400 nM mtSSB, 0.1 mM Tris-HCl (pH 8.0), 0.1 mM dNTP, 10 mM MgCl2, 0.1 mg/mL BSA, 1 mM TCEP solution, and 0.02% Triton X-100. The DNA template mixture for the wild type protein contained either 100 μM dNTP, 1 μM dNTP, or 0.1 μM dNTP, designated in Table 2 as 100 μM, 1 μM, and 0.1 μM, respectfully.
Microplates with compounds (0.1 μL in each well) to be tested in the assay were prepared from 10 mM compound stocks in 100% DMSO, and equal amounts of DMSO without any compound were added to positive and negative control wells.
The protein mixture was dispensed (5 μL into each well) into compound plates and incubated at 37° C. for 15 minutes. After incubation, 5 μL of the DNA template mixture was dispensed into each well. The plates were then incubated at 37° C. for 2 hours.
During incubation, a combined stop buffer and detection reagent solution was prepared. The buffer contained 25 mM EDTA (pH 8.0), 0.02% Triton X-100, and SYBR Green I [Invitrogen] diluted 10,000× (for fluorescent readout). EDTA will stop the enzymatic reaction by chelating magnesium ions.
In the case of `O=S(=O)(Nc1csc(-c2ccccc2)n1)c1ccc2c(c1)CCO2` [Example 152, N-(2-phenylthiazol-4-yl)-2,3-dihydrobenzofuran-5-sulfonamide], the AC50 was more than 100 µM.

Take `Cc1cc(S(=O)(=O)N[C@@H]2CCCN(C(=O)N3CCCC3)C2)c(C)cc1Cl` [Example 153, (R)-4-chloro-2,5-dimethyl-N-(1-(pyrrolidine-1-carbonyl)piperidin-3-yl)benzenesulfonamide]: the AC50 is more than 100 µM. Regarding `Cc1cc(NS(=O)(=O)c2cc(C)c(Cl)cc2C)cc(-c2ncc(C)s2)c1` [Example 110, 4-chloro-2,5-dimethyl-N-(3-methyl-5-(5-methylthiazol-2-yl)phenyl)benzenesulfonamide], the AC50 is more than 100 µM. As for `O=S(=O)(Nc1csc(-c2ccccc2)n1)c1ccc(F)c(F)c1` [Example 122, 3,4-difluoro-N-(2-phenylthiazol-4-yl)benzenesulfonamide], the AC50 was more than 100 µM. `Cc1ccc(C)c(S(=O)(=O)Nc2csc(-c3ccccc3)n2)c1` [Example 134, 2,5-dimethyl-N-(2-phenylthiazol-4-yl)benzenesulfonamide]: the AC50 worked out at 3 µM. As to `Cc1cc(S(=O)(=O)Nc2csc(-c3ccccc3)n2)ccc1Cl` [Example 148, 4-chloro-3-methyl-N-(2-phenylthiazol-4-yl)benzenesulfonamide], the concentration at half-maximal activity (AC50) was more than 100 µM. As to `Cc1cnc(-c2ccc(C)c(NS(=O)(=O)c3cc(C)c(Cl)cc3C)c2)s1` [Example 98, 4-chloro-2,5-dimethyl-N-(2-methyl-5-(5-methylthiazol-2-yl)phenyl)benzenesulfonamide], the AC50 was more than 100 µM. Regarding `Cc1cc(S(=O)(=O)Nc2cccc(C(=O)N3C[C@@H](F)C[C@H](F)C3)c2)c(C)cc1Cl` [Example 115, 4-chloro-N-(3-((3S,5S)-3,5-difluoropiperidine-1-carbonyl)phenyl)-2,5-dimethylbenzenesulfonamide], the AC50 is more than 100 µM.

On to `Cc1ccc(C)c(S(=O)(=O)Nc2cccc(C(=O)N[C@@H](C)C3CC3)c2)c1` [Example 8, (S)-N-(1-cyclopropylethyl)-3-((2,5-dimethylphenyl)sulfonamido)benzamide], for which the AC50 was 39 µM. Consider `Cc1cc(S(=O)(=O)Nc2ccc3c(c2)CC(=O)N3)c(C)cc1Cl` [Example 185, 4-chloro-2,5-dimethyl-N-(2-oxoindolin-5-yl)benzenesulfonamide], for which the concentration at half-maximal activity (AC50) worked out at 55 µM. The same measure for `Cc1cc(S(=O)(=O)N[C@H]2CCCN(C(=O)[C@H]3CCCN3C)C2)c(C)cc1Cl` [Example 95, 4-chloro-2,5-dimethyl-N-((S)-1-(methyl-D-prolyl)piperidin-3-yl)benzenesulfonamide]: more than 100 µM; for `Cc1cc(S(=O)(=O)Nc2cccc(C(=O)N3CCCC[C@H]3C)c2)c(C)cc1Cl` [Example 9, (R)-4-chloro-2,5-dimethyl-N-(3-(2-methylpiperidine-1-carbonyl)phenyl)benzenesulfonamide]: 18 µM.

On to `O=S(=O)(Nc1csc(-c2ccccc2)n1)c1ccc2ncsc2c1` [Example 137, N-(2-phenylthiazol-4-yl)benzo[d]thiazole-6-sulfonamide], for which the AC50 was more than 100 µM.

On to `Cc1cc(S(=O)(=O)N[C@H]2CCCN(C(=O)[C@@H]3CCCN3C)C2)c(C)cc1Cl` [Example 101, 4-chloro-2,5-dimethyl-N-((S)-1-(methyl-L-prolyl)piperidin-3-yl)benzenesulfonamide], for which the AC50 was more than 100 µM. On to `Cc1cc(S(=O)(=O)Nc2cccc(C(=O)N(CC(N)=O)C3CCCC3)c2)c(C)cc1Cl` [Example 113, N-(2-amino-2-oxoethyl)-3-((4-chloro-2,5-dimethylphenyl)sulfonamido)-N-cyclopentylbenzamide], for which the AC50 was more than 100 µM. The same measure for `O=S(=O)(Nc1csc(-c2ccccc2)n1)c1cccnc1` [Example 121, N-(2-phenylthiazol-4-yl)pyridine-3-sulfonamide]: more than 100 µM; for `Cc1cc(S(=O)(=O)Nc2cccc(C(=O)N(C)C)c2)c(C)cc1Cl` [Example 12, 3-((4-chloro-2,5-dimethylphenyl)sulfonamido)-N,N-dimethylbenzamide]: 45 µM.

Take `Cc1cc(S(=O)(=O)Nc2cccc(C(=O)N3CCc4ncnc(C)c4C3)c2)c(C)cc1Cl` [Example 114, 4-chloro-2,5-dimethyl-N-(3-(4-methyl-5,6,7,8-tetrahydropyrido [4,3-d]pyrimidine-6-carbonyl)phenyl)benzenesulfonamide]: the half-maximal activity concentration (AC50) is more than 100 µM. Consider `O=S(=O)(Nc1csc(-c2ccccc2)n1)c1ccc(F)cc1Cl` [Example 126, 2-chloro-4-fluoro-N-(2-phenylthiazol-4-yl)benzenesulfonamide], for which the AC50 is 32 µM. With `Cc1ccc(C)c(S(=O)(=O)Nc2cccc(C(=O)NCC3CC3)c2)c1` [Example 4, N-(cyclopropylmethyl)-3-((2,5-dimethylphenyl)sulfonamido)benzamide] the figure was 52 µM; with `Cc1cc(S(=O)(=O)Nc2cccc(C(=O)N3CCc4cn[nH]c4C3)c2)c(C)cc1Cl` [Example 107, 4-chloro-2,5-dimethyl-N-(3-(4,5,6,7-tetrahydro-1H-pyrazolo[3,4-c]pyridine-6-carbonyl)phenyl)benzenesulfonamide], 28 µM. The same measure for “(R)-2,5-dimethyl-N-(3-(3-methylmorpholine-4-carbonyl)phenyl)benzenesulfonamide [Example 1]”: 44 µM; for `Cc1cnc(-c2ccc(Cl)c(NS(=O)(=O)c3cc(C)c(Cl)cc3C)c2)s1` [Example 102, 4-chloro-N-(2-chloro-5-(5-methylthiazol-2-yl)phenyl)-2,5-dimethylbenzenesulfonamide]: more than 100 µM; for `Cc1cc(S(=O)(=O)Nc2cccc(C(=O)N3CCC[C@H]3C)c2)ccc1Cl` [Example 117, (R)-4-chloro-3-methyl-N-(3-(2-methylpyrrolidine-1-carbonyl)phenyl)benzenesulfonamide]: more than 100 µM.

Usually AC50 stands for the concentration giving half of the maximal activity seen.

(Values after patent publication US20260138961A1, “MODULATORS OF MITOCHONDRIAL DNA REPLICATION” (Pretzel Therapeutics, Inc., priority 2022, published 2026).)
